In patent publication US9751861B2, “N1-(3,3,3-trifluoro-2-hydroxo-2-methylpropionyl)-piperidine derivatives as inhibitors of pyruvate dehydrogenase kinase” (MERCK PATENT GMBH, priority 2013, dated 2017):

Experiments:
PDHK2 = target: T1, PDHK2 (Homo sapiens, UniProt Q15119); test: Biochemical activity testing of PDHK2: PDC inactivation assay; details: human rec PDHK2, PDC from porcine heart, ATP 5 μM; read-out: IC50 PDHK2 (enzyme assay)
T1 construct: purchased Carna Bioscience
Source text: Biochemical Activity Testing of PDHK2: PDC Inactivation Assay
The biochemical activity assay for PDHK2 is based on the inactivation of PDC through phosphorylation by PDHK2. The assay is run in two steps: the enzymatic PDHK2 reaction in which isolated PDC is phosphorylated by PDHK2 with ATP as co-substrate and the PDC activity assay in which pyruvate and NAD are converted to acetyl-CoA and NADH. The PDC activity correlates to the increase in NADH and thereby is detectable directly via the increasing fluorescence signal (Exc 340 nm, Em 450 nm). Inhibition of PDHK2 results in a lower phosphorylation status and thereby a less decrease in activity of PDC and a stronger increase in NADH fluorescence signal.
The PDC inactivation assay is performed in Greiner 384-well microtiter plates and is used for high throughput screen. 4 μl of PDHK2 (human, rec, Carna Bioscience, 10 ng/μl-137 nM final concentration) and PDC (isolated from porcine heart, Sigma-Aldrich, 20 mU/ml final concentration) are incubated in the absence or presence of the test compound (10 dilution concentrations) for 30 min at room temperature in kinase buffer (15 mM potassium phosphate buffer, pH 7.0, 60 mM KCl, 1.5 mM DTT, 2.5 mM MgCl2, 0.0125% (w/v) BSA, 0.125% Pluronic F-68). The kinase reaction is started by the addition of 4 μl ATP substrate solution (fc 5 μM in kinase buffer). After 30 min incubation at 37° C. 40 μl of PDC reaction solution (100 mM Tris/HCl, pH 7.8, 0.5 mM EDTA, 1 mM MgCl2, 50 mM NaF, 0.25 mM Coenzyme A, 5 mM pyruvate, 1 mM NAD, 5 mM DTT, […] thiamine pyrophosphate) is added. The first fluorescence measurement is performed on a Perkin Elmer Envision (Exc 340 nm, Em 450 nm). The reaction is incubated for 45 min at room temperature. Afterwards a second fluorescence measurement is performed and the PDC activity is calculated by the difference between both measurements. As full value for the PDHK2 assay the inhibitor-free PDHK2 reaction is used. The pharmacological zero value used is DCA (Sigma-Aldrich) in a final concentration of 3 mM. The inhibitory values (IC50) were determined using either the program Symyx Assay Explorer® or Condosseo® from GeneData.

PDH-Elalpha (pSer300) = test: Cellular immunofluorescence assay in HEK293T cells; format: cell-based; details: Homo sapiens, HEK-293T, 5 hours incubation, anti-PDH-E1alpha pSer300 immunofluorescence, read-out: IC50 (cell data)
Method: Cellular Assay for Determination of Compound Activities
Compound activities were determined in a cellular immunofluorescence assay. Human HEK293T cells were seeded into black 384-well plates with clear bottom and grown overnight.
Next day, test compounds were added to the wells and the plates incubated for 5 hours. Following this, cells were fixed with formaldehyde, permeabilised and blocked. The primary antibody, Anti-PDH-Elalpha (pSer300), AP1064 (Merck Millipore) was added and incubated overnight in the plate wells. Next, cells were washed and the seconday antibody, Alexa Fluor 488, goat anti-rabbit ab (A-11008, Invitrogen) was added together with Hoechst 33258 (H3569, Invitrogen) and incubated for 1 hour in the plate wells. Finally, cells were washed and the plates were measured on the laser scanning cytometer acumen hci (TTpLabtech).
The raw data were normalized against a pharmacological inhibitor control and dose response curves were generated by plotting the percent effect values using the software package Genedata screener (Genedata).

human PDHK2 (12-407) = target: T2, human PDHK2 (12-407) (Homo sapiens, UniProt Q15119); test: Isothermal titration calorimetry (ITC) binding; details: 30° C., pH 7.5
T2 construct: The human PDHK2 (12-407) was produced in E. coli; His-tag (cleaved yes); made in house; host or cells: E. coli
Method: Isothermal Titration Calorimetry
ITC measurements were performed with a VP-ITC micro calorimeter (Microcal, LLC/GE Healthcare Bio-Sciences AB, Uppsala, Sweden). In general titrations were performed by titrating the protein (50 μM) to the test compound (5 μM) in 12 μl injections. All binding experiments were carried out at 30° C. In general the test compounds were diluted form DMSO stock solutions into the measurement buffer with a maximum final concentration of 1% DMSO. The measurement buffer was 20 mM HEPES, 135 mM KCl, 1 mM TCEP, 2 mM MgCl2, 15 mM NaH2PO4, pH 7.5. The human PDHK2 (12-407) was produced in E. coli as his-tagged protein and purified by affinity chromatography. The tag was removed by side specific proteolysis. Before titration the protein buffer was changed to the measurement buffer containing the same DMSO concentration as the test compound dilution. ITC data analysis was performed using Origin 7 calorimetry software from the same supplier. For most measurements a binding model of one binding site was assumed. According to the applied mathematical model it is possible to calculate the binding constant (KA), the observed binding enthalpy (ΔH^obs) as well as the stoichiometry (N) of the formed complex. Preceding analysis the raw data was corrected for the heats of dilution by extrapolating from the saturation value from the end of titration. In order to allow for direct comparison between the respective experimental series and protein preparations the protein concentration was corrected by referencing titrations to a well behaved standard inhibitor. The apparent stoichiometry values defined the fraction of binding competent protein and compensated for relative errors in protein concentration measurements. This corrected protein concentration was used to set up ITC experiment series with test compounds. Any deviations from ideal 1:1 stoichiometry observed here were attributed to errors in compound concentration. This nominal compound concentration was corrected as well to achieve 1:1 stoichiometry in the fit.

Compound | IC50 (PDHK2) [nM] | IC50 (PDH-Elalpha (pSer300)) [nM] | Kd (human PDHK2 (12-407)) [nM]
C[C@H]1CN(C(=O)[C@@](C)(O)C(F)(F)F)CC[C@H]1c1ccnn1-c1ccc(F)cc1F [Compound A32, (R)-1-{(3R,4R)-4-[2-(2,4-difluoro-phenyl)-2H-pyrazol-3-yl]-3-methyl-piperidin-1-yl}-3,3,3-trifluoro-2-hydroxy-2-methyl-propan-1-one] | < 300 | 300 to 3000 | 
C[C@@](O)(C(=O)N1CCC(c2ccnn2-c2ccccc2C#N)CC1)C(F)(F)F [Compound A3, 2-{5-[1-((R)-3,3,3-Trifluoro-2-hydroxy-2-methyl-propionyl)-piperidin-4-yl]-pyrazol-1-yl}-benzonitrile] |  | 300 to 3000 | 300 to 3000
C[C@@](O)(C(=O)N1CCC(c2ccnn2-c2ccc(Cl)cc2F)CC1)C(F)(F)F [Compound A23, (R)-1-{4-[2-(4-Chloro-2-fluoro-phenyl)-2H-pyrazol-3-yl]-piperidin-1-yl}-3,3,3-trifluoro-2-hydroxy-2-methyl-propan-1-one] | < 300 | 300 to 3000 | < 300
C[C@@](O)(C(=O)N1CCC(c2cncn2-c2ccccc2)CC1)C(F)(F)F [Compound A65, (R)-3,3,3-Trifluoro-2-hydroxy-2-methyl-1-[4-(3-phenyl-3H-imidazol-4-yl)piperidin-1-yl]-propan-1-one] | 300 to 3000 | 300 to 3000 | < 300
Cn1cc(-n2nccc2C2CCN(C(=O)[C@@](C)(O)C(F)(F)F)CC2)cn1 [Compound A85, (R)-3,3,3-Trifluoro-2-hydroxy-2-methyl-1-[4-[2-(1-methylpyrazol-4-yl)-2H-pyrazol-3-yl]-1-piperidyl]propan-1-one] | 300 to 3000 | 3000 to 50000 | < 300
COCCn1nccc1C1CCN(C(=O)[C@@](C)(O)C(F)(F)F)CC1 [Compound A78, (R)-3,3,3-Trifluoro-2-hydroxy-1-[4-[2-(2-methoxyethyl)-2H-pyrazol-3-yl]-1-piperidyl]-2-methyl-propan-1-one] | 300 to 3000 | 3000 to 50000 | < 300
C[C@@](O)(C(=O)N1CCC(c2cncn2-c2ccc(F)cc2)CC1)C(F)(F)F [Compound A124, (R)-3,3,3-Trifluoro-1-{4-[3-(4-fluoro-phenyl)-3H-imidazol-4-yl]-piperidin-1-yl}-2-hydroxy-2-methyl-propan-1-one] | 300 to 3000 | 300 to 3000 | < 300
C[C@@](O)(C(=O)N1CCC(n2ccnc2-c2ccc(Cl)cc2)CC1)C(F)(F)F [Compound A62, (R)-1-{4-[2-(4-Chloro-phenyl)-imidazol-1-yl]-piperidin-1-yl}-3,3,3-trifluoro-2-hydroxy-2-methyl-propan-1-one] | < 300 | 300 to 3000 | < 300
COc1ccc(-n2nccc2[C@H]2CCN(C(=O)[C@@](C)(O)C(F)(F)F)C[C@H]2C)cn1 [Compound A113, (R)-3,3,3-Trifluoro-1-{(3S,4S)-4-[2-(6-methoxy-pyridin-3-yl)-2H-pyrazol-3-yl]-3-methyl-piperidin-1-yl}-2-hydroxy-2-methyl-propan-1-one] | < 300 | < 300 | < 300
COc1ccccc1-n1nccc1C1CCN(C(=O)[C@@](C)(O)C(F)(F)F)CC1 [Compound A7, (R)-3,3,3-Trifluoro-2-hydroxy-1-{4-[2-(2-methoxy-phenyl)-2H-pyrazol-3-yl]-piperidin-1-yl}-2-methyl-propan-1-one] |  | < 300 | 300 to 3000
C[C@@H]1CN(C(=O)[C@@](C)(O)C(F)(F)F)CC[C@@H]1c1ccnn1-c1ccc(F)cc1F [Compound A33, (R)-1-{(3S,4S)-4-[2-(2,4-difluoro-phenyl)-2H-pyrazol-3-yl]-3-methyl-piperidin-1-yl}-3,3,3-trifluoro-2-hydroxy-2-methyl-propan-1-one] | < 300 | < 300 | 

Now from value to molecule:

IC50 (PDHK2) [nM] | IC50 (PDH-Elalpha (pSer300)) [nM] | Kd (human PDHK2 (12-407)) [nM] | Compound
300 to 3000 | 300 to 3000 | < 300 | C[C@@](O)(C(=O)N1CCC(c2ccnn2-c2cccc(C#N)c2)CC1)C(F)(F)F [Compound A8, 3-{5-[1-((R)-3,3,3-Trifluoro-2-hydroxy-2-methyl-propionyl)-piperidin-4-yl]-pyrazol-1-yl}-benzonitrile]
< 300 | 300 to 3000 | < 300 | COc1ccc(-n2nccc2C2CCN(C(=O)[C@@](C)(O)C(F)(F)F)CC2)c(F)c1 [Compound A28, (R)-3,3,3-Trifluoro-1-{4-[2-(2-fluoro-4-methoxy-phenyl)-2H-pyrazol-3-yl]-piperidin-1-yl}-2-hydroxy-2-methyl-propan-1-one]
300 to 3000 | 3000 to 50000 | < 300 | C[C@@](O)(C(=O)N1CCC(c2ccnn2-c2ccc(C(F)(F)F)nc2)CC1)C(F)(F)F [Compound A80, (R)-3,3,3-Trifluoro-2-hydroxy-2-methyl-1-[4-[2-[6-(trifluoromethyl)-3-pyridyl]-2H-pyrazol-3-yl]-1-piperidyl]propan-1-one]
< 300 | 300 to 3000 | < 300 | C[C@@](O)(C(=O)N1CCC(c2ccnn2-c2ccc(C(F)(F)F)cc2)CC1)C(F)(F)F [Compound A27, (R)-3,3,3-Trifluoro-2-hydroxy-2-methyl-1-{4-[2-(4-trifluoromethyl-phenyl)-2H-pyrazol-3-yl]-piperidin-1-yl}-propan-1-one]
300 to 3000 | 3000 to 50000 | < 300 | C[C@@](O)(C(=O)N1CCC(c2ccnn2-c2ccc(F)cn2)CC1)C(F)(F)F [Compound A112, (2R)-1-[4-[2-(5-Fluoro-2-pyridyl)-2H-pyrazol-3-yl]-1-piperidyl]-3,3,3-trifluoro-2-hydroxy-2-methyl-propan-1-one]
300 to 3000 | 300 to 3000 | < 300 | C[C@@](O)(C(=O)N1CCC(c2ccnn2-c2ccc(C(F)(F)F)cc2F)CC1)C(F)(F)F [Compound A88, (R)-3,3,3-Trifluoro-1-[4-[2-[2-fluoro-4-(trifluoromethyl)phenyl]-2H-pyrazol-3-yl]-1-piperidyl]-2-hydroxy-2-methyl-propan-1-one]
< 300 | 300 to 3000 | < 300 | C[C@@](O)(C(=O)N1CCC(c2ccnn2-c2ccc(OCC(F)(F)F)cc2)CC1)C(F)(F)F [Compound A49, (R)-3,3,3-Trifluoro-2-hydroxy-2-methyl-1-(4-{2-[4-(2,2,2-trifluoro-ethoxy)phenyl]-2H-pyrazol-3-yl}-piperidin-1-yl)-propan-1-one]
